Source: patent publication US7947308B2, “Effervescent powders for inhalation” (priority 2005, dated 2011)

Experiment: In vitro aerosol deposition, Mark II Andersen Cascade Impactor (MMAD, FPF, GSD)
Format: physicochemical
Conditions: spray-dried carrier particles containing ciprofloxacin; UV assay of impactor plates
Excerpt: The pulmonary deposition of the empty effervescent carrier particles and the carrier particles containing nanoparticles were investigated in vitro by measuring the Mass Median Aerodynamic Diameter (MMAD) using a Mark II Andersen Cascade Impactor (Thermo Andersen, Smyrna, Ga.) in combination with a new high efficiency inhaler (described in U.S. Patent Application Publication No. 2004/0107963 to Finlay, W. H. & Wang, Z., filed Dec. 2, 2003, entitled “Device and Method for Deagglomeration of Powder for Inhalation”, the contents of which are herein incorporated by reference); Wang, Z., Grgic, B., and Finlay, W. H. (2006) A Dry Powder Inhaler with Reduced Mouth-throat Deposition. […]
The MMAD was calculated by linear interpolation of the cumulative mass distribution to obtain the particle size for which the cumulative mass under this size was 50% (Sham, J.-H., Zhang, Y., Finlay, W. H., Roa, W. H. & Lobenberg, R. (2004) Formulation and characterization of spray-dried powders containing nanoparticles for aerosol delivery to the lung. International Journal of Pharmaceutics. 269: 457-467). […]
Particle size and FPF were determined as noted above in Example 1. The dispersibility and content of ciprofloxacin of the spray-dried powders was determined using a Mark II Andersen impactor. […] The MMAD was calculated by a nonlinear regression fit of a log-normal function to the data. […]

range size of most of the particles (cascade impactor): 4.9+/−1 μm
Structure (SMILES): O=C(O)c1cn(C2CC2)c2cc(N3CCNCC3)c(F)cc2c1=O [ciprofloxacin]
